# Earlier results, collected in PMC12525602, “Identification of Selective α-Glucosidase Inhibitors via Virtual Screening with Machine Learning” (Molecules, 2025).
# Tested on: α-glucosidase
# Conditions: Table S5 modeling dataset; activity label 1 = active, 0 = inactive; cited from earlier work
row,Compound,activity
1,CC1(C)CC[C@]2(C(=O)O)CC[C@]3(C)C(=CC[C@@H]4[C@@]5(C)CC[C@H](O)C(C)(C)[C@@H]5CC[C@]43C)[C@@H]2C1 [compound 126],0
2,CCCCCCCC/C=C\CCCCCCCCCC(=O)O [compound 98],0
3,N#Cc1ccc(S(=O)(=O)NNC(=O)c2cc3cc(F)ccc3[nH]2)cc1 [compound 122],0
4,O=C(c1ccccc1)c1ccc2nc(-c3ccc(Cl)cc3)[nH]c2c1 [compound 114],0
5,Clc1ccc(CSc2nnc(COc3cccc4cccnc34)o2)cc1 [compound 121],0
6,N#Cc1c(-c2ccc(Cl)cc2)cc(-c2cccnc2)c(C#N)c1N [compound 97],0
7,CCCCCC/C=C\CCCCCCCC(=O)O [compound 129],0
8,Fc1ccc(CSc2nnc(COc3cccc4cccnc34)o2)c(F)c1 [compound 108],0
9,N#Cc1c(-c2ccc(Cl)cc2)cc(-c2cccc([N+](=O)[O-])c2)c(C#N)c1N [compound 120],0
10,O=c1c(O[C@@H]2OC[C@H](O)[C@H](O)[C@H]2O)c(-c2ccc(O)c(O)c2)oc2cc(O)cc(O)c12 [compound 104],0

# Same assay, conditions: activity label in the 300-compound modeling dataset (Table S5); 1 = active, 0 = inactive; cited from earlier work
row,Compound,activity
1,O=C1CC(c2ccc(O)cc2)Oc2cc(O)cc(O)c21 (centres unmarked) [compound 211],1
2,O=C(COc1c(I)cc(Cl)c2cccnc12)c1ccccc1 [compound 214],1
3,CCOC(=O)c1ccc(-n2c(/C=C3\OC(=O)c4c3cc(C)[nH]c4=O)ccc2CO)cc1 [compound 228],1
4,O=c1c(O)c(-c2ccc(O)c(O)c2)oc2cc(O)ccc12 [compound 231],1
5,COc1ccc(/C(CSc2nnc3c(n2)[nH]c2ccccc23)=N\c2nnc(-c3ccccc3[N+](=O)[O-])s2)cc1 [compound 213],1
6,O=C(CCc1ccc(NS(=O)(=O)c2ccc(C(F)(F)F)cc2)cc1)N1CC[C@H](O)[C@H](O)C1 [compound 225],1
7,COc1ccc(OC)c(/C(CSc2nnc3c(n2)[nH]c2ccccc23)=N\c2nnc(-c3cc(Br)ccc3OC)s2)c1 [compound 198],1
8,Oc1cccc(-c2cc3cccc(Br)c3o2)c1 [compound 209],1
9,Cc1ccc(-c2cc(C(F)(F)F)nn2-c2ccc(S(=O)(=O)NC(=O)c3ccc(Br)cc3)cc2)cc1 [compound 208],1
10,C[C@@H]1O[C@@H](O[C@H]2C(=O)c3c(O)cc(O)cc3O[C@@H]2c2ccc(O)c(O)c2)[C@H](O)[C@H](O)[C@H]1O [compound 229],1
11,O=c1c(O)c(-c2ccc(O)cc2)oc2c(O)c(O)cc(O)c12 [compound 219],1

# Same assay, conditions: activity label of the 300-compound modeling dataset, Table S5; cited from earlier work
row,Compound,activity
1,CC(C)(C)c1ccc(N/N=C/C2CC(=O)c3ccccc3O2)cc1 (centres unmarked) [compound 234],1
2,O=C1C(=NNc2nncs2)c2ccccc2N1Cc1ccc(Cl)cc1 [compound 255],1
3,O=C1CC(/C=N/Nc2ccc(F)cc2)Oc2ccccc21 (centres unmarked) [compound 235],1
4,O=C(COc1c(I)cc(Cl)c2cccnc12)c1ccc([N+](=O)[O-])cc1 [compound 248],1
5,c1ccc(-c2cnc3ccccc3n2)cc1 [compound 278],1
6,Cc1cc(C)cc(Cn2cc(COc3ccc(-c4nc(-c5ccccc5)c(-c5ccccc5)[nH]4)cc3)nn2)c1 [compound 267],1
7,O=C(COc1c(I)cc(Cl)c2cccnc12)c1ccc(Cl)cc1Cl [compound 276],1
8,Oc1cccc(-c2nnc(/N=C(/CSc3nnc4c(n3)[nH]c3ccccc34)c3ccc(-c4ccccc4)cc3)s2)c1 [compound 269],1
9,Cc1ccc(-c2cnc3ccccc3n2)cc1 [compound 257],1
10,O=C(COc1c(I)cc(Cl)c2cccnc12)c1ccc(-c2ccccc2)cc1 [compound 242],1

# Same assay, conditions: activity label of the modeling dataset (Table S5), α-glucosidase; 1 = active, 0 = inactive; cited from earlier work
row,Compound,activity
1,O=c1c(O[C@@H]2O[C@H](CO)[C@H](O)[C@H](O)[C@H]2O)c(-c2ccc(O)c(O)c2)oc2cc(O)cc(O)c12 [compound 38],0
2,N#Cc1c(-c2cccc(Cl)c2)cc(-c2ccco2)c(C#N)c1N [compound 7],0
3,CC1CCCN(c2ccc(/C=N/Nc3nc(-c4ccc(Cl)cc4)cs3)cc2)C1 (centres unmarked) [compound 13],0
4,O=C(c1ccccc1)c1ccc2nc(-c3ccc(O)cc3O)[nH]c2c1 [compound 9],0
5,Fc1ccc(Cn2cc(CSc3nnc(COc4cccc5cccnc45)o3)nn2)cc1F [compound 29],0
6,O=C(O)c1ccc(-c2nc3ccc(C(=O)c4ccccc4)cc3[nH]2)cc1 [compound 5],0
7,Cc1ccc(-c2cc(-c3ccncc3)c(C#N)c(N)c2C#N)cc1 [compound 35],0
8,N#Cc1c(-c2ccc(Cl)cc2)cc(-c2ccccn2)c(C#N)c1N [compound 21],0
9,O=c1c(OC2OC(CO)C(O)C(O)C2O)c(-c2cc(O)c(O)c(O)c2)oc2cc(O)cc(O)c12 (centres unmarked) [compound 34],0

# Same assay, conditions: activity label of the modeling dataset, Table S5 (1 = active, 0 = inactive); cited from earlier work
row,Compound,activity
1,N#Cc1ccc2[nH]c(-c3nnc(Nc4ccc([N+](=O)[O-])cc4)s3)cc2c1 [compound 60],0
2,Clc1ccc(Cn2cc(CSc3nnc(COc4cccc5cccnc45)o3)nn2)c(Cl)c1 [compound 61],0
3,Brc1ccc(-n2cc(CSc3nnc(COc4cccc5cccnc45)o3)nn2)cc1 [compound 81],0
4,CC(C)c1ccc(S(=O)(=O)NNC(=O)c2cc3cc(F)ccc3[nH]2)cc1 [compound 88],0
5,CCSc1nnc(COc2cccc3cccnc23)o1 [compound 63],0
6,CC1CCN(c2ccc(/C=N/Nc3nc(-c4ccc([N+](=O)[O-])cc4)cs3)cc2)CC1 [compound 67],0
7,CC1CCCN(c2ccc(/C=N/Nc3nc(-c4ccc(F)cc4F)cs3)cc2)C1 (centres unmarked) [compound 78],0
8,Clc1ccc(-n2cc(CSc3nnc(COc4cccc5cccnc45)o3)nn2)c(Cl)c1 [compound 49],0
9,N#Cc1c(-c2ccc(Cl)cc2)cc(-c2cccc(Br)c2)c(C#N)c1N [compound 46],0

# Same assay, conditions: activity label of the modeling dataset, Table S5; cited from earlier work
row,Compound,activity
1,O=C(CCc1ccc(O)cc1)c1c(O)cc(O)cc1O [compound 176],1
2,CC(C)C1=CC2=CC[C@@H]3[C@](C)(CCC[C@@]3(C)C(=O)O)[C@H]2CC1 [compound 174],1
3,COc1cccc(C(=O)C2=C(O)c3ccccc3S(=O)(=O)C2CC(=O)Nc2ccc(Cl)cc2)c1 (centres unmarked) [compound 177],1
4,COc1cccc(C(=O)C2C(O)c3ccccc3S(=O)(=O)N2CC(=O)Nc2ccc(Cl)cc2)c1 (centres unmarked) [compound 178],1

# Same assay, conditions: activity label of the modeling dataset, sheet Table S5; 1 = active, 0 = inactive; cited from earlier work
row,Compound,activity
1,CC(C)=CCn1c(=O)oc2c(C(=O)/C=C/c3cc(F)c(O)c(F)c3)cccc21 [compound 280],1
2,Clc1ccc(-c2cnc3ccccc3n2)cc1Cl [compound 295],1
3,c1ccc(-c2ccc(-c3cnc4ccccc4n3)cc2)cc1 [compound 288],1
4,Cc1ccc(-c2cc(C(F)(F)F)nn2-c2ccc(S(=O)(=O)NC(=O)c3ccc(C)c([N+](=O)[O-])c3)cc2)cc1 [compound 281],1
5,Cc1ccc(-n2cc(/C=N\NC(=O)Nc3ccccc3)c(-c3ccc([N+](=O)[O-])cc3)n2)cc1 [compound 299],1
6,CCOC(=O)c1cc(-c2ccc(Br)cc2)n2nc3ccccc3c2n1 [compound 296],1
